pIC50: −log10 of the molar value. The source made the active and inactive calls. The calls are words filed in the database; no cut-off is given here.
Assays:
[1] = Inhibition of EGF-stimulated colony formation in mouse JB6 Cl41 cells by anchorage-independent soft agar assay; assay type: functional
HeLa [2] = experiment: Anticancer activity in human HeLa cells assessed as inhibition of colony formation by anchorage-independent soft agar assay; assay type: functional
HL-60 [3] = experiment: Anticancer activity in human HL60 cells assessed as inhibition of colony formation by anchorage-independent soft agar assay; assay type: functional
SK-MEL-28 [4] = experiment: Anticancer activity in human SK-MEL-28 cells assessed as inhibition of colony formation by anchorage-independent soft agar assay; assay type: functional
THP-1 [5] = experiment: Anticancer activity in human THP1 cells assessed as inhibition of colony formation by anchorage-independent soft agar assay; assay type: functional
[6] = Inhibition of EGF-stimulated viability of mouse JB6 Cl41 cells after 22 hrs by MTS assay; assay type: functional, cell-based; conditions: JB6 Cl41, 22 h
HL-60 [7] = experiment: Cytotoxicity against human HL60 cells after 22 hrs by MTS assay; assay type: functional, cell-based; conditions: HL-60, 22 h
THP-1 [8] = experiment: Cytotoxicity against human THP1 cells after 22 hrs by MTS assay; assay type: functional, cell-based; conditions: THP-1, 22 h
HeLa [9] = experiment: Cytotoxicity against human HeLa cells after 22 hrs by MTS assay; assay type: functional, cell-based
MDA-MB-231 = experiment: Cytotoxicity against human MDA-MB-231 cells after 22 hrs by MTS assay; assay type: functional, cell-based; conditions: MDA-MB-231, 22 h
DLD-1 = experiment: Cytotoxicity against human DLD1 cells after 22 hrs by MTS assay; assay type: functional, cell-based; conditions: DLD-1, 22 h
[10] = Cytotoxicity against human SNUC4 cells after 22 hrs by MTS assay; assay type: functional, cell-based; conditions: SNU-C4, 22 h
SK-MEL-28 [11] = experiment: Cytotoxicity against human SK-MEL-28 cells after 22 hrs by MTS assay; assay type: functional, cell-based; conditions: SK-MEL-28, 22 h
THP-1 [12] = experiment: Induction of apoptosis in human THP1 cells after 24 hrs by FITC-conjugated annexin V and propidium iodide staining-based flow cytometry; assay type: functional, cell-based
THP-1 [13] = experiment: Induction of apoptosis in human THP1 cells assessed as viable cells at 500 nM after 24 hrs by FITC-conjugated annexin V and propidium iodide staining-based flow cytometry; assay type: functional; conditions: THP-1, 24 h, read-out: Activity
THP-1 [14] = experiment: Induction of apoptosis in human THP1 cells assessed as early apoptotic cells at 500 nM after 24 hrs by FITC-conjugated annexin V and propidium iodide staining-based flow cytometry; assay type: functional
THP-1 [15] = experiment: Induction of apoptosis in human THP1 cells assessed as late apoptotic cells at 500 nM after 24 hrs by FITC-conjugated annexin V and propidium iodide staining-based flow cytometry; assay type: functional
THP-1 [16] = experiment: Induction of apoptosis in human THP1 cells assessed as non-viable necrotic cells at 500 nM after 24 hrs by FITC-conjugated annexin V and propidium iodide staining-based flow cytometry; assay type: functional
THP-1 [17] = experiment: Induction of apoptosis in human THP1 cells assessed as viable cells at 1000 nM after 24 hrs by FITC-conjugated annexin V and propidium iodide staining-based flow cytometry; assay type: functional; conditions: THP-1, 24 h, read-out: Activity
THP-1 [18] = experiment: Induction of apoptosis in human THP1 cells assessed as early apoptotic cells at 1000 nM after 24 hrs by FITC-conjugated annexin V and propidium iodide staining-based flow cytometry; assay type: functional
THP-1 [19] = experiment: Induction of apoptosis in human THP1 cells assessed as late apoptotic cells at 1000 nM after 24 hrs by FITC-conjugated annexin V and propidium iodide staining-based flow cytometry; assay type: functional
THP-1 [20] = experiment: Induction of apoptosis in human THP1 cells assessed as non-viable necrotic cells at 1000 nM after 24 hrs by FITC-conjugated annexin V and propidium iodide staining-based flow cytometry; assay type: functional
THP-1 [21] = experiment: Induction of apoptosis in human THP1 cells assessed as viable cells at 2000 nM after 24 hrs by FITC-conjugated annexin V and propidium iodide staining-based flow cytometry; assay type: functional; conditions: THP-1, 24 h, read-out: Activity
THP-1 [22] = experiment: Induction of apoptosis in human THP1 cells assessed as early apoptotic cells at 2000 nM after 24 hrs by FITC-conjugated annexin V and propidium iodide staining-based flow cytometry; assay type: functional
THP-1 [23] = experiment: Induction of apoptosis in human THP1 cells assessed as late apoptotic cells at 2000 nM after 24 hrs by FITC-conjugated annexin V and propidium iodide staining-based flow cytometry; assay type: functional
THP-1 [24] = experiment: Induction of apoptosis in human THP1 cells assessed as non-viable necrotic cells at 2000 nM after 24 hrs by FITC-conjugated annexin V and propidium iodide staining-based flow cytometry; assay type: functional
HL-60 [25] = experiment: Induction of apoptosis in human HL60 cells assessed as total apoptotic cells at 50 to 100 nM after 24 hrs by FITC-conjugated annexin V and propidium iodide staining-based flow cytometry; assay type: functional
HL-60 [26] = experiment: Induction of apoptosis in human HL60 cells assessed as total apoptotic cells at 1000 nM after 24 hrs by FITC-conjugated annexin V and propidium iodide staining-based flow cytometry; assay type: functional
HL-60 [27] = experiment: Induction of apoptosis in human HL60 cells assessed as early apoptotic cells at 50 nM after 24 hrs by FITC-conjugated annexin V and propidium iodide staining-based flow cytometry; assay type: functional
HL-60 [28] = experiment: Induction of apoptosis in human HL60 cells assessed as early apoptotic cells at 250 nM after 24 hrs by FITC-conjugated annexin V and propidium iodide staining-based flow cytometry; assay type: functional
HL-60 [29] = experiment: Induction of apoptosis in human HL60 cells assessed as early apoptotic cells at 500 to 1000 nM after 24 hrs by FITC-conjugated annexin V and propidium iodide staining-based flow cytometry; assay type: functional
HL-60 [30] = experiment: Induction of apoptosis in human HL60 cells assessed as decrease in procaspase-8 level at 500 nM after 24 hrs by Western blot analysis; assay type: functional, cell-based

Compound: O=C1c2ccc(Br)cc2-[n+]2ccc3c([nH]c4ccccc43)c21.[Cl-]
- INCC50 [1]: 106.4 nM
- INCC50 (HeLa [2]): 108.1 nM
- INCC50 (HL-60 [3]): 103.5 nM
- INCC50 (SK-MEL-28 [4]): 162.9 nM
- INCC50 (THP-1 [5]): 59.7 nM
- pIC50 [6]: 6.55
- pIC50 (HL-60 [7]): 6.26
- pIC50 (THP-1 [8]): 6.28
- pIC50 (HeLa [9]): 6.47
- pIC50 (MDA-MB-231): 6.24
- pIC50 (DLD-1): 6.61
- pIC50 [10]: 6.62
- pIC50 (SK-MEL-28 [11]): 6.11
- Activity (THP-1 [12]): Dose-dependent effect
- viability at 0.5 µM (THP-1 [13]): 68.2%
- Activity (THP-1 [14]): 13%
- Activity (THP-1 [15]): 12.4%
- Activity (THP-1 [16]): 6.4%
- viability at 1 µM (THP-1 [17]): 40.9%
- Activity (THP-1 [18]): 17.9%
- Activity (THP-1 [19]): 23.2%
- Activity (THP-1 [20]): 18%
- viability at 2 µM (THP-1 [21]): 25.8%
- Activity (THP-1 [22]): 25.8%
- Activity (THP-1 [23]): 25.5%
- Activity (THP-1 [24]): 23.5%
- Activity (HL-60 [25]): 20%
- Activity (HL-60 [26]): 90%
- Activity (HL-60 [27]): 5%
- Activity (HL-60 [28]): 40%
- Activity (HL-60 [29]): 20%
- inhibition (HL-60 [30]): Active
